Reference: patent US20090318351A1, “METHOD OF TREATING ACUTE ST-ELEVATION MYOCARDIAL INFARCTION WITH A DELTA PKC ANTAGONIST” (priority 2008, published 2009)
Entries after “also recorded” stand apart in the source; their conditions may differ. Ends that are not written are not given here.

Tests used:
[1] = Plasma stability of capped peptides (KAI-9706 modified at amino and carboxy termini); conditions: rat
Protocol: Plasma stability of capped peptides was compared. KAI-9706 was modified step-wise at its amino and carboxy termini. Plasma stability as measured by the percent of peptide composition remaining after 15 minutes.

[2] = Effect of D-peptides on plasma stability of KAI-9706
Protocol: KAI-9706 was engineered with D-amino acids to determine their impact on peptide composition stability. Unmodified KAI-9706 was compared to a peptide composition with the same amino acid sequence, however the amino acids used were d-enantiomers instead of 1-amino acids. A retro-inverso version and a scrambled version of the peptide composition were also prepared.

[3] = Stability of linear versus disulfide linked peptides in PBS solution; type: physicochemical; conditions: conditions described in Example 15 (so in the source), FIGS. 8, 9 and 15
Protocol: The peptides were placed in solution at 0.1 mg/ml in PBS (pH 7.4) at 37° C.
Linear and disulfide bond linked versions of PKC-βI and PKC-βII peptide compositions were incubated under the conditions described in Example 15.
In particular, the Asn residues at position 7 of the β-I and β-II peptides and the Gln at position 2 of the β-II peptide. These linear peptide compositions were modified by substituting the Gly immediately C-terminal to the Asn with either Leu in the β-I peptide composition or Gly to Ile in the β-II peptide composition. The Gln at position 2 of the β-II peptide composition was also substituted with a Glu residue. The stability of the peptides was studied under the conditions described in Example 15.

[4] = 100 μg/ml, room temperature, LC/MS
Protocol: The effect of N-terminal acetylation and C-terminal amidation on compound stability in plasma and serum from rat and human was studied. The compounds were tested in the plasma/serum at a concentration of 100 μg/ml. The solutions were incubated at room temperature, precipitated with 5% TCA, and then the supernatant was neutralized with ammonium acetate. The peptides were then analyzed by LC/MS.

[5] = system: patients with acute anterior STEMI; assay: DELTA MI trial: intracoronary KAI-9803 during primary PCI for acute anterior STEMI
Protocol: Safety and biomarker end points were assessed.
The following example is a clinical treatment of acute ST-elevation myocardial infarction (STEMI) using the compositions and methods provided in the invention.
Patients were recommended to receive aspirin (162-325 mg orally), a thienopyridine loading dose (clopidogrel 300-600 mg or ticlopidine 500 mg), unfractionated heparin, and glycoprotein IIb-IIIa inhibitors during PCI. […] After verifying the final angiographic inclusion criteria during diagnostic angiography, randomization and study drug preparation occurred in the catheterization laboratory before the beginning of the PCI procedure.
Study drug was reconstituted into a clear solution at 1 of 4 concentrations using serial dilutions with 0.9% sodium chloride solution. Study drug was administered during PCI in the following sequence. First, the guidewire was passed across the obstruction in the left anterior descending (LAD) infarct vessel and an over-the-wire balloon catheter was positioned at the level of the obstruction. Second, the guidewire was removed, and dilute contrast was injected to confirm positioning of the catheter tip downstream from the obstruction and to assess patency of the distal vessel. The contrast injection was followed by a saline flush, and the guidewire was reinserted. Third, the balloon was inflated, and, after removing the guidewire, 2 mL of blinded study drug were hand injected slowly into the distal vascular bed over at least 1 minute. Fourth, the guidewire was readvanced through the catheter into the distal vessel, and the balloon was deflated. Finally, after antegrade epicardial coronary flow was re-established following initial balloon inflations, 3 mL of blinded study drug were injected through the guide catheter positioned at the ostium of the left main coronary artery. The PCI procedure was then completed according to standard technique.
After initial informed consent was obtained and before diagnostic angiography was performed, a continuous digital 12-lead ECG monitor (NEMON 180+, Northeast Monitoring, Natick, Mass.) was applied and baseline serum samples were obtained for analyses of cardiac markers including creatine kinase (CK and CK-MB), troponin T, and N-terminal pro-brain natriuretic peptide (BNP).
After completion of the PCI procedure, angiography was performed a minimum of 10 minutes after the final balloon inflation and a minimum of 30 minutes after antegrade epicardial flow was re-established to measure TIMI (Thrombolysis in Myocardial Infarction) flow grade, corrected TIMI frame count, and TIMI myocardial perfusion grade (TMPG). TMPG was assessed approximately 30 minutes after administration of study drug and prior to intracoronary administration of adenosine. Coronary flow reserve was determined by measuring corrected TIMI frame count before and after administration of 18-24 mcg of intracoronary adenosine. A left ventriculogram was performed to assess ejection fraction.
The continuous ECG monitor was removed after 24 hours of data collection. Continuous ST-segment recovery analysis was performed in a blinded core laboratory. End points assessed from measurement of continuous 12-lead ECGs included time to stable ST recovery, % ST-segment resolution at serial static time points, and ST recovery time-trend curve area defined by summated ST-segment resolution and re-elevation integrated over the first 3 hours following PCI.
Blood collection for CK-MB levels was performed at 3-6 hours, 6-12 hours, 18-24 hours, and 36 hours after randomization.

rat heart = assay: Rat heart model (Langendorff assay) of ischemic damage, CK release; conditions: Langendorff in vitro post-ischemia model, 10 minutes perfusion, FIG. 16
Protocol: The ability of the capped composition to inhibit ischemic damage in a rat heat model (Langendorff Assay) was evaluated versus the uncapped form.

Q: With `CC[C@H](C)[C@H](NC(=O)[C@@H]1CCCN1C(=O)[C@H](C)NC(=O)[C@H](CC(=O)O)NC(=O)[C@H](Cc1c[nH]cn1)NC(=O)[C@@H](N)CSSC[C@H](N)C(=O)N[C@@H](Cc1ccc(O)cc1)C(=O)NCC(=O)N[C@@H](CCCNC(=N)N)C(=O)N[C@@H](CCCCN)C(=O)N[C@@H](CCCCN)C(=O)N[C@@H](CCCNC(=N)N)C(=O)N[C@@H](CCCNC(=N)N)C(=O)N[C@@H](CCC(N)=O)C(=O)N[C@@H](CCCNC(=N)N)C(=O)N[C@@H](CCCNC(=N)N)C(=O)N[C@@H](CCCNC(=N)N)C(=O)O)C(=O)NCC(=O)N[C@@H](Cc1ccc(O)cc1)C(=O)N[C@@H](CC(=O)O)C(=O)O` [KAI-9706] as the compound, how does the remaining at 0.25 h [1] read?
A: 1%

Q: And the “% parent remaining at 15 mins” value ([2]; All-L, All-D, scrambled or retro-inverso (R/I) carrier and cargo)?
A: 1%

Q: With `CC[C@H](C)[C@H](NC(=O)[C@@H]1CCCN1C(=O)[C@H](C)NC(=O)[C@H](CC(=O)O)NC(=O)[C@H](Cc1c[nH]cn1)NC(=O)[C@@H](N)CSSC[C@@H](N)C(=O)N[C@H](Cc1ccc(O)cc1)C(=O)NCC(=O)N[C@H](CCCNC(=N)N)C(=O)N[C@H](CCCCN)C(=O)N[C@H](CCCCN)C(=O)N[C@H](CCCNC(=N)N)C(=O)N[C@H](CCCNC(=N)N)C(=O)N[C@H](CCC(N)=O)C(=O)N[C@H](CCCNC(=N)N)C(=O)N[C@H](CCCNC(=N)N)C(=O)N[C@H](CCCNC(=N)N)C(=O)O)C(=O)NCC(=O)N[C@@H](Cc1ccc(O)cc1)C(=O)N[C@@H](CC(=O)O)C(=O)O` [KAI-9706 carrier All-D cargo All-L] as the compound, how does the remaining at 0.25 h [2] read?
A: 88%

Q: With “Ac-GEEVIRNISGYGRKKRRQRRR-NH2 [modified linear β-II peptide composition]” as the compound, how does the “stability in solution of PKC-βI and PKC-βII peptide compositions” value [3] read?
A: served to stabilize; also recorded: improved stability

Q: Which remaining at 0.25 h [2] does the source give for `CC[C@@H](C)[C@@H](NC(=O)[C@H]1CCCN1C(=O)[C@@H](C)NC(=O)[C@@H](CC(=O)O)NC(=O)[C@@H](Cc1c[nH]cn1)NC(=O)[C@H](N)CSSC[C@H](N)C(=O)N[C@@H](Cc1ccc(O)cc1)C(=O)NCC(=O)N[C@@H](CCCNC(=N)N)C(=O)N[C@@H](CCCCN)C(=O)N[C@@H](CCCCN)C(=O)N[C@@H](CCCNC(=N)N)C(=O)N[C@@H](CCCNC(=N)N)C(=O)N[C@@H](CCC(N)=O)C(=O)N[C@@H](CCCNC(=N)N)C(=O)N[C@@H](CCCNC(=N)N)C(=O)N[C@@H](CCCNC(=N)N)C(=O)O)C(=O)NCC(=O)N[C@H](Cc1ccc(O)cc1)C(=O)N[C@H](CC(=O)O)C(=O)O` [KAI-9706 carrier All-L cargo All-D] here?
A: 0%

Q: For EAVSLKPTGGYGRKKRRQRRR-NH2 [KP-1633], which “stability in human serum” value [4] is on record?
A: increased stability

Q: For `CC(C)C[C@H](NC(=O)[C@H](CO)NC(=O)CNC(=O)[C@H](CC(C)C)NC(=O)[C@H](CCC(=O)O)NC(=O)[C@H](Cc1ccc(O)cc1)NC(=O)[C@H](CO)NC(=O)[C@H](CC(N)=O)NC(=O)[C@H](Cc1ccccc1)NC(=O)[C@H](CO)NC(=O)[C@@H](N)CSSC[C@H](N)C(=O)N[C@@H](Cc1ccc(O)cc1)C(=O)NCC(=O)N[C@@H](CCCNC(=N)N)C(=O)N[C@@H](CCCCN)C(=O)N[C@@H](CCCCN)C(=O)N[C@@H](CCCNC(=N)N)C(=O)N[C@@H](CCCNC(=N)N)C(=O)N[C@@H](CCC(N)=O)C(=O)N[C@@H](CCCNC(=N)N)C(=O)N[C@@H](CCCNC(=N)N)C(=O)N[C@@H](CCCNC(=N)N)C(=O)O)C(=O)O` [KAI-9803], which “investigator-reported CHF events” value ([5]; active study drug group, through 6 months, number of events) is on record?
A: 21

Q: And the “incidence of serious adverse events versus placebo” value ([5]; all cohorts)?
A: similar

Q: And the “changes in clinical laboratory values from baseline through 48 hours versus placebo” value ([5]; blood counts, electrolytes, BUN, creatinine, liver function tests)?
A: no differences

Q: And the “incidence of serious adverse events through 30 days” value ([5]; cohort 1 (0.05 mg))?
A: 30.4%

Q: And the “incidence of serious adverse events through 30 days” value ([5]; cohort 2 (0.5 mg))?
A: 16.0%

Q: And the “incidence of serious adverse events through 30 days” value ([5]; cohort 3 (1.25 mg))?
A: 19.2%

Q: And the “incidence of serious adverse events through 30 days” value ([5]; cohort 4 (5.0 mg))?
A: 35.7%

Q: What about the “median maximum change in the QT interval from baseline until after the second dose” value ([5]; pooled active study drug) of the same compound?
A: 16.9 ms

Q: Which “potency in protecting cardiac tissue from ischemia (creatine kinase release)” value (rat heart) does the source give for “KAI-1355: truncated version of KAI-9803 in which the carboxy terminal leucine was removed; cargo CSFNSYELGS” here?
A: potency comparable to that of the full length KAI-9803

Q: For `CC[C@@H](C)[C@@H](NC(=O)[C@H]1CCCN1C(=O)[C@@H](C)NC(=O)[C@@H](CC(=O)O)NC(=O)[C@@H](Cc1c[nH]cn1)NC(=O)[C@H](N)CSSC[C@@H](N)C(=O)N[C@H](Cc1ccc(O)cc1)C(=O)NCC(=O)N[C@H](CCCNC(=N)N)C(=O)N[C@H](CCCCN)C(=O)N[C@H](CCCCN)C(=O)N[C@H](CCCNC(=N)N)C(=O)N[C@H](CCCNC(=N)N)C(=O)N[C@H](CCC(N)=O)C(=O)N[C@H](CCCNC(=N)N)C(=O)N[C@H](CCCNC(=N)N)C(=O)N[C@H](CCCNC(=N)N)C(=O)O)C(=O)NCC(=O)N[C@H](Cc1ccc(O)cc1)C(=O)N[C@H](CC(=O)O)C(=O)O` [KAI-9706 carrier All-D cargo All-D], which remaining at 0.25 h [2] is on record?
A: 100%

Q: For “Ac-GKLFIMNLSGYGRKKRRQRRR-NH2 [modified linear β-I peptide composition]”, which “stability in solution of PKC-βI and PKC-βII peptide compositions” value [3] is on record?
A: served to stabilize; also recorded: stabilized

Q: With Ac-EAVSLKPTGGYGRKKRRQRRR-NH2 [KP-1678] as the compound, how does the “stability in human serum” value [4] read?
A: increased stability
